Among the data in US11827628B2, “Compositions and methods for inhibition of the JAK pathway” (Rigel Pharmaceuticals, Inc., priority 2005, dated 2023) are IC50 values, retold here.

This test concerns up-regulation of ICAM-1 (CD54) by IFNγ in A549 lung epithelial cells. In words: A549 Epithelial Line Stimulated with IFNγ (ICAM-1 surface expression, FACS). The class given is cell-based, human. Particulars: Homo sapiens, A549, A549 cells stimulated with IFNγ, ICAM-1 expression by FACS; read-out: IC50, Example 43. The source says: The activity of the compounds of the invention may additionally be characterized by assaying the effect of the 2,4-substituted pyrimidinediamine compounds described herein on A549 lung epithelial cells and U937 cells. A549 lung epithelial cells and U937 cells up-regulate ICAM-1 (CD54) surface expression in response to a variety of different stimuli. Therefore, using ICAM-1 expression as readout, test compound effects on different signaling pathways can be assessed in the same cell type. Stimulation with IL-1β through the IL-1β receptor activates the TRAF6/NFκB pathway resulting in up-regulation of ICAM-1. IFNγ induces ICAM-1 up-regulation through activation of the JAK1/JAK2 pathway. The up-regulation of ICAM-1 can be quantified by flow cytometry across a compound dose curve and EC50, values are calculated. An exemplary assays of this type are described in greater detail in Examples 43 and 44
A549 lung epithelial cells up-regulate ICAM-1 (CD54) surface expression in response to a variety of different stimuli. Therefore, using ICAM-1 expression as readout, compound effects on different signaling pathways can be assessed in the same cell type. IFNγ up-regulates ICAM-1 through activation of the JAK/Stat pathway. In this example, the up-regulation of ICAM-1 by IFNγ was assessed.
The A549 lung epithelial carcinoma cell line originated from the American Type Culture Collection. Routine culturing was with F12K media (Mediatech Inc., Lenexa, KS, Cat. No. 10-025-CV) with 10% fetal bovine serum, 100 I.U. penicillin and […] streptomycin (complete F12k media). Cells were incubated in a humidified atmosphere of 5% CO2 at 37° C. Prior to use in the assay, A549 cells were washed with PBS and trypsinized (Mediatech Inc., Cat. No. 25-052-CI) to lift the cells. The trypsin cell suspension was neutralized with complete F12K media and centrifuged to pellet the cells. The cell pellet was resuspended in complete F12K media at a concentration of 2.0×10^5/mL. Cells were seeded at 20,000 per well, 100 μL total volume, in a flat bottom tissue culture plate and allowed to adhere overnight.
On day two, A549 cells were pre-incubated with a 2,4-substituted pyrimidinediamine test compound or DMSO (control) (Sigma-Aldrich, St. Louis, MO, Catalog No. D2650) for 1 hour. The cells were then stimulated with IFNγ (75 ng/mL) (Peprotech Inc., Rocky Hill, NJ, Cat. No. 300-02) and allowed to incubate for 24 hours. The final test compound dose range was 30 μM to 14 nM in 200 μL F12K media containing 5% FBS, 0.3% DMSO.
On day three, the cell media was removed and the cells were washed with 200 μL PBS (phosphate buffered saline). Each well was trypsinized to dissociate the cells, then neutralized by addition of 200 μL complete F12K media. Cells were pelleted and stained with an APC conjugated mouse anti-human ICAM-1 (CD54) (BD Pharmingen, San Diego, CA, Catalog #559771) antibody for 20 minutes at 4° C. Cells were washed with ice cold FACS buffer (PBS+2% FBS) and surface ICAM-1 expression was analyzed by flow cytometry. Detection was performed using a BD LSR I System Flow Cytometer, purchased from BD Biosciences of San Jose, California Events were gated for live scatter and the geometric mean was calculated (Becton-Dickinson CellQuest software version 3.3, Franklin Lakes, NJ). Geometric means were plotted against the compound concentration to generate a dose response curve.

Counter-ions that a name gives are not always drawn.

For orientation: IC50 means the concentration needed to halve the response being measured. Turning to `N#CCN1C(=O)COc2ccc(Nc3nc(Nc4cccc(S(N)(=O)=O)c4)ncc3F)cc21` [Compound V-7, N2-(3-Aminosulphonylphenyl)-5-fluoro-N4-(3-oxo-4-cyanomethyl-benz[1,4]oxazin-6-yl]-2,4-pyrimidinediamine], the IC50 worked out at 5 µM.
In the case of `Cc1ccc(Nc2ncc(F)c(Nc3ccc4c(c3)N(CC#N)C(=O)CO4)n2)cc1S(N)(=O)=O` [Compound V-8, N2-(3-Aminosulphonyl-4-methylphenyl)-5-fluoro-N4-[3-oxo-4-cyanomethyl-benz[1,4]oxazin-6-yl]-2,4-pyrimidinediamine] it was 5.21 µM; in that of `N#CCN1C(=O)CSc2ccc(Nc3nc(Nc4cccc(S(N)(=O)=O)c4)ncc3F)cc21` [Compound V-12, N2-(3-Aminosulphonylphenyl)-5-fluoro-N4-(3-oxo-4-cyanomethyl-benzo[1,4]thiazin-6-yl)-2,4-pyrimidinediamine], 54 µM.
For `Cc1ccc(Nc2ncc(F)c(Nc3ccc4c(c3)N(CC#N)C(=O)CS4)n2)cc1S(N)(=O)=O` [Compound V-13, N2-(3-Aminosulphonyl4-methylphenyl)-5-fluoro-N4-(3-oxo-4-cyanomethyl-benzo[1,4]thiazin-6-yl)-2,4-pyrimidinediamine] the value was 6.87 µM; for `NS(=O)(=O)c1cccc(Nc2ncc(F)c(Nc3ccc(Cc4ccncc4)cc3)n2)c1` [III-128, N2-(3-Aminosulfonylphenyl)-5-fluoro-N4-[4-(4-pyridylmethyl)phenyl]-2,4-pyrimidinediamine p-Toluenesulfonic Acid Salt], 28.1 µM.
In the case of `NS(=O)(=O)c1cccc(Nc2ncc(F)c(Nc3ccc(-c4cnco4)cc3)n2)c1` [IV-5, N2-(3-Aminosulfonylphenyl)-5-fluoro-N4-[4-(1,3-oxazol-5-yl)phenyl]-2,4-pyrimidinediamine] it was 16.1 µM.
For the compound `C#CCn1ccc2cc(Nc3nc(Nc4ccc(C)c(S(N)(=O)=O)c4)ncc3F)ccc21` [IX-1, N2-(3-Aminosulfonyl-4-methylphenyl)-5-fluoro-N4-[1-(propyn-3-yl)indol-5-yl]-2,4-pyrimidinediamine], the IC50 was 4.88 µM.
In the case of `N#CCc1c[nH]c2ccc(Nc3nc(Nc4cccc(S(N)(=O)=O)c4)ncc3F)cc12` [IX-13, N2-(3-Aminosulfonylphenyl)-N4-(3-cyanomethyl-1H-indol-5-yl)-5-fluoro-2,4-pyrimidinediamine] it was 30.3 µM.
In the case of `Cc1ccc(Nc2ncc(F)c(Nc3ccc4[nH]cc(CC#N)c4c3)n2)cc1S(N)(=O)=O` [IX-14, N2-(3-Aminosulfonyl-4-methylphenyl)-N4-(3-cyanomethyl-1H-indol-5-yl)-5-fluoro-2,4-pyrimidinediamine] it was 3.38 µM; in that of `Cc1ccc(Nc2ncc(F)c(Nc3ccc(Cl)c(Cl)c3)n2)cc1S(N)(=O)=O` [VI-6, N2-(3-Aminosulfonyl-4-methylphenyl)-N4-(3,4-dichlorophenyl)-5-fluoro-2,4-pyrimidinediamine], 15 µM.
Consider `COc1cc(Nc2nc(Nc3ccc(Cl)c(S(N)(=O)=O)c3)ncc2F)ccc1Cl` [VI-11, N2-(3-Aminosulfonyl-4-chlorophenyl)-N4-(4-chloro-3-methoxyphenyl)-5-fluoro-2,4-pyrimidinediamine], for which the half-inhibitory concentration (IC50) was 47.1 µM.
For `COc1ccc(Nc2nc(Nc3cc(Cl)c(C)c(S(N)(=O)=O)c3)ncc2F)cc1Cl` [VI-13, N2-(3-Aminosulfonyl-5-chloro-4-methylphenyl)-N4-(3-chloro-4-methoxyphenyl)-5-fluoro-2,4-pyrimidinediamine] the value was 8.23 µM; for `COc1ccc(Nc2nc(Nc3cc(C)c(Cl)c(S(N)(=O)=O)c3)ncc2F)cc1Cl` [VI-17, N2-(3-Aminosulfonyl-4-chloro-5-methylphenyl)-N4-(3-chloro-4-methoxyphenyl)-5-fluoro-2,4-pyrimidinediamine], 6.42 µM.
Consider `COc1ccc(Nc2nc(Nc3cccc(S(N)(=O)=O)c3)ncc2Br)cc1Cl` [VI-26, N2-(3-aminosulfonylphenyl)-5-bromo-N4-(3-chloro-4-methoxyphenyl)-2,4-pyrimidinediamine], for which the IC50 amounted to 1.7 µM.
For `COc1c(C)cc(Nc2ncc(F)c(Nc3ccc(C(C)(C)C)cc3)n2)cc1S(N)(=O)=O` [VI-37, N2-(3-Aminosulfonyl-4-methoxy-5-methylphenyl)-N4-(4-tert-butylphenyl)-5-fluoro-2,4-pyrimidinediamine] the value was 12.4 µM; for `COc1ccc(Nc2nc(Nc3ccc(C(C)C)c(S(N)(=O)=O)c3)ncc2F)cc1Cl` [VI-45, N2-(3-Aminosulfonyl-4-iso-propylphenyl)-N4-(3-chloro-4-methoxy-phenyl)-5-fluoro-2,4-pyrimidinediamine], 10.5 µM.
For `Cc1ccc(Nc2ncc(F)c(Nc3ccc(CO)cc3)n2)cc1S(N)(=O)=O` [VI-52, N2-(3-Aminosulfonyl-4-methylphenyl)-5-fluoro-N4-(4-hydroxymethylphenyl)-2,4-pyrimidinediamine] the value was 5.92 µM; for `C#CCOc1ccc(Nc2nc(Nc3ccc(C)c(S(N)(=O)=O)c3)ncc2F)cc1` [VI-53, N2-(3-Aminosulfonyl-4-methylphenyl)-5-fluoro-N4-[4-(prop-2-ynyloxy)phenyl]-2,4-pyrimidinediamine], 11.3 µM; for `C=Cc1ccc(Nc2nc(Nc3ccc(C)c(S(N)(=O)=O)c3)ncc2F)cc1` [VI-54, N2-(3-Aminosulfonyl-4-methylphenyl)-5-fluoro-N4-(4-vinylphenyl)-2,4-pyrimidinediamine], 31 µM.
For the compound `C#CCOc1ccc(Nc2nc(Nc3ccc(C)c(S(N)(=O)=O)c3)ncc2F)cc1Cl` [VI-59, N2-(3-Aminosulfonyl-4-methylphenyl)-N4-[3-chloro-4-(prop-2-ynyloxy)phenyl]-5-fluoro-2,4-pyrimidinediamine], the IC50 stood at 4.98 µM.
For `C#CCOc1ccc(Nc2nc(Nc3ccc(C)c(S(N)(=O)=O)c3)ncc2F)cc1F` [VI-60, N2-(3-Aminosulfonyl-4-methylphenyl)-5-fluoro-N4-[3-fluoro-4-(prop-2-ynyloxy)phenyl]-2,4-pyrimidinediamine], the IC50 came to 3.85 µM.
For `CC#CCOc1ccc(Nc2nc(Nc3ccc(C)c(S(N)(=O)=O)c3)ncc2F)cc1` [VI-61, N2-(3-Aminosulfonyl-4-methylphenyl)-N4-[4-(but-2-ynyloxy)phenyl]-5-fluoro-2,4-pyrimidinediamine] the value was 3.11 µM; for `C#CCNc1ccc(Nc2nc(Nc3ccc(C)c(S(N)(=O)=O)c3)ncc2F)cc1` [VI-65, N2-(3-Aminosulfonyl-4-methylphenyl)-5-fluoro-N4-[4-(prop-2-ynylamino)phenyl]-2,4-pyrimidinediamine], 4.13 µM; for `C#CCOc1ccc(Nc2nc(Nc3ccc(C)c(S(=O)(=O)NC)c3)ncc2F)cc1` [VI-68, 5-Fluoro-N2-(4-methyl-3-methylaminosulfonylphenyl)-N4-[4-(prop-2-ynyloxy)phenyl]-2,4-pyrimidinediamine], 26.8 µM.
In the case of `NS(=O)(=O)c1cccc(Nc2ncc(F)c(Nc3ccc(CCCF)cc3)n2)c1` [VI-83, N2-(3-Aminosulfonylphenyl)-5-fluoro-N4-[4-(3-fluoropropyl)phenyl]-2,4-pyrimidinediamine] it was 7.3 µM; in that of `Cc1ccc(Nc2ncc(F)c(Nc3ccc(CCCF)cc3)n2)cc1S(N)(=O)=O` [VI-84, N2-(3-Aminosulfonyl-4-methylphenyl)-5-fluoro-N4-[4-(3-fluoropropyl)phenyl]-2,4-pyrimidinediamine], 4.58 µM.
For `NS(=O)(=O)c1ccc(Nc2ncc(F)c(Nc3ccc(CCCO)cc3)n2)cc1` [VI-85, N2-(4-Aminosulfonylphenyl)-5-fluoro-N4-[4-(3-hydroxypropyl)phenyl]-2,4-pyrimidinediamine] the value was 24.7 µM.
